In PubChem BioAssay AID248 (DTP/NCI, 2004):
Several values for one entry are separate records, joined by “and”; a condition that tells them apart may be missing. Identical values can stand only once. Inconclusive results and toxic doses are left out. Rule as the data show it: active = T/C of 150% or more; inactive = T/C below 125%.

Tested on: L1210 leukemia ip in BDF1 mice, survival T/C
Test: NCI In Vivo Anticancer Drug Screen. Data for tumor model L1210 Leukemia (intraperitoneal) in B6D2F1 (BDF1) mice
Details: endpoint: mean survival time, higher = longer survival
Method in brief: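 Read-out is survival time, reported as the treated-group measurement over the vehicle-control measurement.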

[1] = dose: 100.0 mg/kg/injection, schedule: Q01DX001 (ip), vehicle: saline
[2] = dose: 200.0 mg/kg/injection, schedule: Q01DX001 (ip), vehicle: saline
[3] = dose: 100.0 mg/kg/injection, schedule: Q01DX009 (ip), vehicle: saline with Tween-80
[4] = dose: 200.0 mg/kg/injection, schedule: Q01DX009 (ip), vehicle: saline with Tween-80
[5] = dose: 100.0 mg/kg/injection, schedule: Q01DX009 (ip), vehicle: Klucel (hydroxypropylcellulose) (HPC)
[6] = dose: 200.0 mg/kg/injection, schedule: Q01DX009 (ip), vehicle: Klucel (hydroxypropylcellulose) (HPC)
[7] = dose: 400.0 mg/kg/injection, schedule: Q01DX009 (ip), vehicle: Klucel (hydroxypropylcellulose) (HPC)
[8] = dose: 400.0 mg/kg/injection, schedule: Q01DX001 (ip), vehicle: saline
[9] = dose: 100.0 mg/kg/injection, schedule: Q04DX003 (ip), vehicle: Klucel (hydroxypropylcellulose) (HPC)
[10] = dose: 200.0 mg/kg/injection, schedule: Q04DX003 (ip), vehicle: Klucel (hydroxypropylcellulose) (HPC)
[11] = dose: 400.0 mg/kg/injection, schedule: Q04DX003 (ip), vehicle: Klucel (hydroxypropylcellulose) (HPC)
[12] = dose: 50.0 mg/kg/injection, schedule: Q01DX009 (ip), vehicle: Klucel (hydroxypropylcellulose) (HPC)
[13] = dose: 25.0 mg/kg/injection, schedule: Q01DX009 (ip), vehicle: Klucel (hydroxypropylcellulose) (HPC)
[14] = dose: 50.0 mg/kg/injection, schedule: Q04DX003 (ip), vehicle: Klucel (hydroxypropylcellulose) (HPC)

Measured: T/C

O=Cc1ccc(O)c(O)c1
inactive: dose: 100.0 mg/kg/injection, schedule: Q01DX Z (ip), vehicle: other 101 % of control and 102 % of control | dose: 150.0 mg/kg/injection, schedule: Q01DX Z (ip), vehicle: other 101 % of control and 107 % of control | dose: 160.0 mg/kg/injection, schedule: Q01DX Z (ip), vehicle: carboxymethylcellulose (CMC) 115 % of control | dose: 160.0 mg/kg/injection, schedule: Q01DX Z (ip), vehicle: other 122 % of control | dose: 225.0 mg/kg/injection, schedule: Q01DX Z (ip), vehicle: other 98 % of control and 120 % of control | dose: 240.0 mg/kg/injection, schedule: Q01DX Z (ip), vehicle: carboxymethylcellulose (CMC) 122 % of control | dose: 340.0 mg/kg/injection, schedule: Q01DX Z (ip), vehicle: other 101 % of control and 107 % of control | dose: 510.0 mg/kg/injection, schedule: Q01DX Z (ip), vehicle: other 113 % of control | dose: 540.0 mg/kg/injection, schedule: Q01DX Z (ip), vehicle: other 93 % of control | dose: 750.0 mg/kg/injection, schedule: Q01DX Z (ip), vehicle: other 113 % of control

Cc1ccc(COC(=O)c2cccnc2)cc1
inactive: dose: 100.0 mg/kg/injection, schedule: Q01DX001 (ip), vehicle: Klucel (hydroxypropylcellulose) (HPC) 103 % of control | dose: 200.0 mg/kg/injection, schedule: Q01DX001 (ip), vehicle: Klucel (hydroxypropylcellulose) (HPC) 100 % of control | dose: 400.0 mg/kg/injection, schedule: Q01DX001 (ip), vehicle: Klucel (hydroxypropylcellulose) (HPC) 103 % of control

Cn1cncc1CC1COC(=O)C1C(O)c1ccccc1 (centres undefined)
inactive: [1] 108 % of control | [2] 107 % of control

Oc1ccc2ccccc2c1Cc1cccc2ccccc12
inactive: [3] 90 % of control | [4] 95 % of control

O=C1C(Cl)=C(Nc2ccccc2)C(=O)C(Cl)=C1Nc1ccccc1
inactive: [3] 87 % of control | dose: 100.0 mg/kg/injection, schedule: Q04DX003 (ip), vehicle: saline with Tween-80 88 % of control | [4] 87 % of control | dose: 200.0 mg/kg/injection, schedule: Q04DX003 (ip), vehicle: saline with Tween-80 92 % of control | dose: 400.0 mg/kg/injection, schedule: Q01DX009 (ip), vehicle: saline with Tween-80 94 % of control | dose: 400.0 mg/kg/injection, schedule: Q04DX003 (ip), vehicle: saline with Tween-80 95 % of control

CCN(CCCl)CCCNCc1c2ccccc2c(C)c2ccccc12
inactive: dose: 5.0 mg/kg/injection, schedule: Q01DX005 (ip), vehicle: saline 116 % of control

C[N+](C)(C)/N=C\C1CC=CCC1 (centres undefined)
inactive: dose: 12.5 mg/kg/injection, schedule: Q01DX009 (ip), vehicle: saline 99 % of control | dose: 25.0 mg/kg/injection, schedule: Q01DX009 (ip), vehicle: saline 96 % of control | dose: 50.0 mg/kg/injection, schedule: Q01DX009 (ip), vehicle: saline 99 % of control and 105 % of control

O=C(N/N=C/c1ccc(Cl)cc1)c1ccccc1NC(=O)C1CC1
inactive: [5] 97 % of control | [6] 87 % of control | [7] 103 % of control

S=P(NNc1ccccc1)(NNc1ccccc1)c1ccc(Cl)cc1
inactive: dose: 100.0 mg/kg/injection, schedule: Q04DX002 (ip), vehicle: gum acacia 89 % of control | dose: 200.0 mg/kg/injection, schedule: Q04DX002 (ip), vehicle: gum acacia 89 % of control | dose: 400.0 mg/kg/injection, schedule: Q04DX002 (ip), vehicle: gum acacia 92 % of control

Cc1ccnc(NS(=O)(=O)c2ccc(N=[N+]=[N-])cc2)n1
inactive: dose: 100.0 mg/kg/injection, schedule: Q01DX009 (ip), vehicle: carboxymethylcellulose (CMC) 92 % of control and 91 % of control | dose: 100.0 mg/kg/injection, schedule: Q04DX002 (ip), vehicle: carboxymethylcellulose (CMC) 98 % of control | dose: 200.0 mg/kg/injection, schedule: Q01DX009 (ip), vehicle: carboxymethylcellulose (CMC) 95 % of control | dose: 200.0 mg/kg/injection, schedule: Q04DX002 (ip), vehicle: carboxymethylcellulose (CMC) 93 % of control and 98 % of control | dose: 400.0 mg/kg/injection, schedule: Q01DX009 (ip), vehicle: carboxymethylcellulose (CMC) 97 % of control and 102 % of control | dose: 400.0 mg/kg/injection, schedule: Q04DX002 (ip), vehicle: carboxymethylcellulose (CMC) 101 % of control and 105 % of control

O=C(O)C(=O)Cc1c(Cl)cccc1[N+](=O)[O-]
inactive: dose: 50.0 mg/kg/injection, schedule: Q01DX001 (ip), vehicle: saline 104 % of control | [1] 101 % of control | [2] 106 % of control | [8] 104 % of control

O=C(CCCC(=O)N/N=C/c1ccc(OCc2ccccc2)cc1)N/N=C\c1ccc(OCc2ccccc2)cc1
inactive: dose: 50.0 mg/kg/injection, schedule: Q01DX001 (ip), vehicle: other 102 % of control | dose: 100.0 mg/kg/injection, schedule: Q01DX001 (ip), vehicle: other 93 % of control | dose: 200.0 mg/kg/injection, schedule: Q01DX001 (ip), vehicle: other 93 % of control | dose: 400.0 mg/kg/injection, schedule: Q01DX001 (ip), vehicle: other 91 % of control

Cc1ccc(C)c(NC(=O)NC(C)C)c1
inactive: [5] 94 % of control | [9] 96 % of control | [6] 94 % of control | [10] 91 % of control | [7] 91 % of control | [11] 89 % of control

CCCCCCCCCCCCSCCNC(=O)CCl
inactive: [5] 87 % of control | [9] 95 % of control | [6] 92 % of control | [10] 92 % of control | [7] 88 % of control | [11] 92 % of control

Cc1ccc(S(=O)(=O)N(CC(=O)c2ccccc2)c2ccc(Br)cc2)cc1
inactive: [1] 89 % of control | [2] 86 % of control | [8] 86 % of control

CCN(CC)c1ccc(C2NC(=O)c3ccccc3N2)cc1 (centres undefined)
inactive: [12] 106 % of control and 108 % of control | [5] 116 % of control | dose: 150.0 mg/kg/injection, schedule: Q01DX009 (ip), vehicle: Klucel (hydroxypropylcellulose) (HPC) 104 % of control and 117 % of control

C/C(CC(=O)N1CCCCC1)=N\NC(N)=S
inactive: dose: 100.0 mg/kg/injection, schedule: Q01DX001 (ip), vehicle: carboxymethylcellulose (CMC) 97 % of control | dose: 200.0 mg/kg/injection, schedule: Q01DX001 (ip), vehicle: carboxymethylcellulose (CMC) 103 % of control | dose: 400.0 mg/kg/injection, schedule: Q01DX001 (ip), vehicle: carboxymethylcellulose (CMC) 94 % of control

BrCc1ccc(CBr)c(Br)c1
inactive: [13] 108 % of control | [12] 98 % of control | [14] 104 % of control | [9] 95 % of control

CCCC(=O)Nc1cc([N+](=O)[O-])ccc1OC
inactive: [5] 104 % of control | [6] 104 % of control | [7] 98 % of control

O=C1CN(O)C(c2ccccc2)=c2cc(Cl)ccc2=N1
inactive: [13] 100 % of control | dose: 25.0 mg/kg/injection, schedule: Q04DX003 (ip), vehicle: Klucel (hydroxypropylcellulose) (HPC) 98 % of control | [12] 101 % of control | [14] 108 % of control | [5] 95 % of control | [9] 90 % of control | [6] 92 % of control | [10] 93 % of control | [7] 108 % of control | [11] 98 % of control

CC(=O)Oc1ccc2c3c(c(=O)oc2c1)C(C)(C)c1c(c(=O)oc2cc(OC(C)=O)ccc12)C3(C)C
inactive: dose: 100.0 mg/kg/injection, schedule: Q01DX009 (ip), vehicle: saline sonified 97 % of control | dose: 100.0 mg/kg/injection, schedule: Q04DX003 (ip), vehicle: saline sonified 102 % of control | dose: 200.0 mg/kg/injection, schedule: Q01DX009 (ip), vehicle: saline sonified 98 % of control | dose: 200.0 mg/kg/injection, schedule: Q04DX003 (ip), vehicle: saline sonified 97 % of control | dose: 400.0 mg/kg/injection, schedule: Q01DX009 (ip), vehicle: saline sonified 98 % of control | dose: 400.0 mg/kg/injection, schedule: Q04DX003 (ip), vehicle: saline sonified 105 % of control

CC(N)CNc1ccccc1 (centres undefined)
inactive: dose: 12.5 mg/kg/injection, schedule: Q04DX003 (ip), vehicle: water 105 % of control | dose: 25.0 mg/kg/injection, schedule: Q04DX003 (ip), vehicle: water 98 % of control | dose: 50.0 mg/kg/injection, schedule: Q04DX003 (ip), vehicle: water 104 % of control
